The text below walks through data of patent US4931498A, “Immobilized artificial membranes” (Purdue Research Foundation, priority 1988, dated 1990).

Square brackets hold non-standard residues; d marks the D form. Ends that are not written are not given here. Peptide text beside a SMILES is read from it.

The nature of data set [1]: HPLC elution on Nucleosil-lecithin (immobilized artificial membrane) column. The class given is physicochemical. Also noted: Elution times: unit not given beside the values. To be noted: for Elution times: Nucleosil-lecithin column, mobile phase isotonic buffered saline at 1.0 ml/min, detection at 260 nm; for Elution Volumes on Nucleosil-Lecithin, Mobile Phase PBS: mobile phase isotonic phosphate buffered saline (pH 7.34); for Elution Volumes on Nucleosil-Lecithin, Mobile Phase PBS / Elution Volumes on Nucleosil-Lecithin, Mobile Phase 0.1% TFA: detection 220 nm; for Elution Volumes on Nucleosil-Lecithin, Mobile Phase 0.1% TFA: peptides dissolved in 0.1% aqueous TFA. How it is done:
A 4 mm×100 mm HPLC column was packed with about one gram of Nucleosil-lecithin (pooled from several preparations above) using a Shandon column packer. Excess Nucleosil-lecithin (1.45 grams) was suspended in 15 ml of degassed methanol and then sonicated 5 minutes to assure particle dispersion. The dispersion was transferred to the 30-ml slurry reservoir on the column packer, and 15 ml of degassed methanol was added to fill the reservoir. The column was packed at 4500 psi.
The HPLC elution properties of the Nucleosil-lecithin column were evaluated.
Separation of 2-deoxycytidine (C), 2-deoxyuridine (U), 2'-deoxyguanosine (G) and 2'-deoxyadenosine (A) was effected using isotonic buffered saline as the mobile phase at 1.0 ml/min with detection at 260 nm. Elution times were as follows: C - 1.175; U - 1.465; G - 1.730; and A - 2.090.
FIG. 11 is a chromatogram for a mixture of Peptides I and II, dissolved in 0.1% aqueous trifluoracetic acid (TFA) and detected at 220 nm. In FIG. 11 the mobile phase was isotonic phosphate buffered saline (pH 7.34). FIG. 12 is a chromatogram for a mixture of Peptides III and IV, dissolved in 0.1% aqueous trifluoracetic acid (TFA) and detected at 220 nm. In FIG. 12 the mobile phase was 0.1% TFA.

A short description of data set [2]: HPLC elution on cholesterol-loaded Nucleosil-lecithin column. The settings on record: for Elution Volumes by Mobile Phase, H2O: mobile phase water. The class given is physicochemical. Here is the method: The Nucleosil-lecithin chromatography support material was then "loaded" with cholesterol in situ using the following procedure.
A solution of 80 ml of 1 mg/ml cholesterol in MeOH:isopropanol/8:2 was pumped through the Nucleosil-lecithin using a Bendex pump. […] Approximately […] was recovered in the effluent showing that 40 mg of cholesterol was loaded onto the Nucleosil-lecithin column. This is approximately 50% by weight of the bonded phase. The Nucleosil-lecithin/cholesterol column containing MeOH/isopropanol was attached to the HPLC and eluted with water (approximately 100 ml). The mobile phase was changed to 0.1% TFA and peptides dissolved in 0.1% TFA were injected to determine the elution volumes. The mobile phase was changed to water and the peptides were reinjected after the column was equilibrated with 100 ml of water to determine the elution volumes. The column was washed with PBS buffer (100 ml) and the peptides were again injected to determine elution volumes using PBS as the mobile phase.

In turn, `Nc1nc2c(ncn2[C@H]2C[C@H](O)[C@@H](CO)O2)c(=O)[nH]1` [2'-deoxyguanosine] displayed an Elution times in data set [1] of 1.730.

In the case of `Nc1ccn([C@H]2C[C@H](O)[C@@H](CO)O2)c(=O)n1` [2-deoxycytidine], in data set [1], the Elution times worked out at 1.175.

On to `O=c1ccn([C@H]2C[C@H](O)[C@@H](CO)O2)c(=O)[nH]1` [2-deoxyuridine], for which, in data set [1], the Elution times amounted to 1.465.

“HIFNQ-NH2 [Peptide VI, NH2 H-I-F-N-QNH2]”: in data set [1], the “Elution Volumes on Nucleosil-Lecithin, Mobile Phase PBS” value (“Elution Volumes … Mobile Phase PBS” for short) stood at 5.8. Moreover, in data set [2], the “Elution Volumes by Mobile Phase, 0.1% TFA” value is 1.0; the “Elution Volumes by Mobile Phase, PBS” value was found to be 4.2; the “Elution Volumes by Mobile Phase, H2O” value is given as 0.8.

As for `CSCC[C@@H](N)C(=O)N1CCC[C@@H]1C(=O)N[C@H](CO)C(=O)N[C@H](Cc1c[nH]c2ccccc12)C(=O)N[C@@H](C(=O)NCC(=O)NCC(=O)N[C@H](CS)C(=O)O)[C@H](C)O` [Peptide VIII, NH2 d,M-d,P-d,S-d,W-d,T-G-G-d,C--COOH] (H-[dM][dP][dS][dW][dT]GG[dC]-OH), in data set [2], the “Elution Volumes by Mobile Phase, 0.1% TFA” value amounted to 5.0; the “Elution Volumes by Mobile Phase, PBS” value is on record as 6.5; the “Elution Volumes by Mobile Phase, H2O” value is given as 3.0.

Regarding “MPSWTGGC [Peptide III, NH2 M-P-S-W-T-G-G-C--COOH]”, in data set [1], the “Elution Volumes on Nucleosil-Lecithin, Mobile Phase 0.1% TFA” value (shortened to “Elution Volumes … Mobile Phase 0.1% TFA”) was found to be 9.4 and the “Elution Volumes … Mobile Phase PBS” value amounted to 10.0. Moreover, in data set [2], the “Elution Volumes by Mobile Phase, 0.1% TFA” value came out at 5.3; the “Elution Volumes by Mobile Phase, PBS” value is on record as 6.9; the “Elution Volumes by Mobile Phase, H2O” value was found to be 9.2.

Consider “CGYGSTWP [Peptide V, NH2 C-G-Y-G-S-T-W-P--COOH]”, for which the “Elution Volumes by Mobile Phase, 0.1% TFA” value in data set [2] was 6.6.

On to “MPSWTGG [Peptide IV, NH2 M-P-S-W-T-G-G-COOH]”, for which, in data set [1], the “Elution Volumes … Mobile Phase 0.1% TFA” value was 4.1 and the “Elution Volumes … Mobile Phase PBS” value amounted to 4.2. In data set [2], the “Elution Volumes by Mobile Phase, 0.1% TFA” value was 2.9; the “Elution Volumes by Mobile Phase, PBS” value was found to be 5.0; the “Elution Volumes by Mobile Phase, H2O” value is on record as 4.9.

Regarding “YGSTWPGC [Peptide I, NH2 Y-G-S-T-W-P-G-C--COOH]”, in data set [1], the “Elution Volumes … Mobile Phase 0.1% TFA” value stood at 7.3 and the “Elution Volumes … Mobile Phase PBS” value is reported as 13.1. Besides, in data set [2], the “Elution Volumes by Mobile Phase, 0.1% TFA” value came out at 5.3; the “Elution Volumes by Mobile Phase, PBS” value is given as 7.9; the “Elution Volumes by Mobile Phase, H2O” value was found to be 7.3.

Regarding “Ac-HIFNQ-NH2 [Peptide VII, NacH-I-F-N-QNH2]”, the “Elution Volumes … Mobile Phase PBS” value in data set [1] was 3.8. In addition, in data set [2], the “Elution Volumes by Mobile Phase, 0.1% TFA” value was found to be 1.3; the “Elution Volumes by Mobile Phase, PBS” value was found to be 3.2; the “Elution Volumes by Mobile Phase, H2O” value is recorded as 0.8.

Turning to “YGSTWPG [Peptide II, NH2 Y-G-S-T-W-P-G-COOH]”, in data set [1], the “Elution Volumes … Mobile Phase 0.1% TFA” value was determined as 3.1 and the “Elution Volumes … Mobile Phase PBS” value was 7.6. Also, in data set [2], the “Elution Volumes by Mobile Phase, 0.1% TFA” value was determined as 2.7; the “Elution Volumes by Mobile Phase, PBS” value is listed as 4.8; the “Elution Volumes by Mobile Phase, H2O” value is on record as 6.6.

In data set [1], `Nc1ncnc2c1ncn2[C@H]1C[C@H](O)[C@@H](CO)O1` [2'-deoxyadenosine] gave an Elution times of 2.090.
